Source: paper PMC6437697 (Journal of Medicinal Chemistry, 2019)

Experiments:
Assay in all cases: KINOMEscan
Type in all cases: binding
[1] = biological target: T1, ABL1(M351T)-phosphorylated (Homo sapiens, UniProt P00519, M351T); conditions: read-out: % control activity remaining
T1 construct: purchased Eurofins DiscoverX KINOMEscan

ERBB4 = biological target: T2, ERBB4 (Homo sapiens, UniProt Q15303); conditions: read-out: % control activity remaining
T2 construct: purchased Eurofins DiscoverX KINOMEscan
T2 sequence (Q15303 26-1308): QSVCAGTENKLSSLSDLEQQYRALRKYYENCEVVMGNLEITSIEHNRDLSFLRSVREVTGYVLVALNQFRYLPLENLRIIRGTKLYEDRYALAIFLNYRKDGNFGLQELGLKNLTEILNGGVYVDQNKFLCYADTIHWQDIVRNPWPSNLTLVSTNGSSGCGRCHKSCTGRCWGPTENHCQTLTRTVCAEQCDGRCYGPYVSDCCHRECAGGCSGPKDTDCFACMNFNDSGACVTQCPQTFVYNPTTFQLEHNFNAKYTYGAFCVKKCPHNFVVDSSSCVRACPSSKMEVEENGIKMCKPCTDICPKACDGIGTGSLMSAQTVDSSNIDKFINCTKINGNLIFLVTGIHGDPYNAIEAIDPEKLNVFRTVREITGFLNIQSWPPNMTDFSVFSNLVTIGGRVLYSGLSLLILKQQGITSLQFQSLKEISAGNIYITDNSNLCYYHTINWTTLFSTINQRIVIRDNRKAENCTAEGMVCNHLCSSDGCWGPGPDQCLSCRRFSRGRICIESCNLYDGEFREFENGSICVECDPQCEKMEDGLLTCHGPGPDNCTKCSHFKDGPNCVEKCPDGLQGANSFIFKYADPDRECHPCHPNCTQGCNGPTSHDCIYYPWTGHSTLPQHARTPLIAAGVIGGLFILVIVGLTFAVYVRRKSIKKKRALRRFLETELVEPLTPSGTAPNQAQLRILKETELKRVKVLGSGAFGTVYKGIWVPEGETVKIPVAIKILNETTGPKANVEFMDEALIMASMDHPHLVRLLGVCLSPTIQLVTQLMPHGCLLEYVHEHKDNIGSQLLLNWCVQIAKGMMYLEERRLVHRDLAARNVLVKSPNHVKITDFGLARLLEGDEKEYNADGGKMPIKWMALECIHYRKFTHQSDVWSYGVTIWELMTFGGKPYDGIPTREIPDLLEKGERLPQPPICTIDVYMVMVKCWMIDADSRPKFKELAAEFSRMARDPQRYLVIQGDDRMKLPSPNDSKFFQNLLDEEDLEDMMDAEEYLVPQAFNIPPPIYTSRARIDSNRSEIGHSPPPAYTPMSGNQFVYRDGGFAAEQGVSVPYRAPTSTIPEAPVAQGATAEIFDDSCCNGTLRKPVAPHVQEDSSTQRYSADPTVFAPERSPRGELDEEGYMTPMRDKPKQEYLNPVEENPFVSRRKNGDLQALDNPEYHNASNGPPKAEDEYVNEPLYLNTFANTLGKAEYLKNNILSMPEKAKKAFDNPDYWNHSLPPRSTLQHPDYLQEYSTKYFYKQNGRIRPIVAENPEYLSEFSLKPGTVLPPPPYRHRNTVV

FGR = biological target: T3, FGR (Homo sapiens, UniProt P09769); conditions: read-out: % control activity remaining
T3 construct: purchased Eurofins DiscoverX KINOMEscan
T3 sequence (P09769 whole entry): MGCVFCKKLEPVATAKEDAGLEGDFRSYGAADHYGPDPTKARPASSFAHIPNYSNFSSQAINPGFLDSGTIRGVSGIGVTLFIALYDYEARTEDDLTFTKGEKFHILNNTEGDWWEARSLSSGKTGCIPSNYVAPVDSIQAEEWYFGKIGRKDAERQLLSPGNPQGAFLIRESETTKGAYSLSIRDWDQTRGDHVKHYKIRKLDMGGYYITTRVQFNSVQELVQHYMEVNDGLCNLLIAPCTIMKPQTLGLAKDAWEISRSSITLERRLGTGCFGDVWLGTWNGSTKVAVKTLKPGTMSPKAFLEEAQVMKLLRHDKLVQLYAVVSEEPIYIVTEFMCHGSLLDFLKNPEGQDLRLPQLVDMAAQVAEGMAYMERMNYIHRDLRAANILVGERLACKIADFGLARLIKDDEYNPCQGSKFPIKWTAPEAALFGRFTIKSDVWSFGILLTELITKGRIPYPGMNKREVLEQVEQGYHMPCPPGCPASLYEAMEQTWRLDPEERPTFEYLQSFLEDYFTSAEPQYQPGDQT

PIK4CB = biological target: T4, PIK4CB (Homo sapiens, UniProt Q9UBF8); conditions: for remaining binding at 1 µM: read-out: % control activity remaining
T4 construct: purchased Eurofins DiscoverX KINOMEscan
T4 sequence (Q9UBF8 whole entry): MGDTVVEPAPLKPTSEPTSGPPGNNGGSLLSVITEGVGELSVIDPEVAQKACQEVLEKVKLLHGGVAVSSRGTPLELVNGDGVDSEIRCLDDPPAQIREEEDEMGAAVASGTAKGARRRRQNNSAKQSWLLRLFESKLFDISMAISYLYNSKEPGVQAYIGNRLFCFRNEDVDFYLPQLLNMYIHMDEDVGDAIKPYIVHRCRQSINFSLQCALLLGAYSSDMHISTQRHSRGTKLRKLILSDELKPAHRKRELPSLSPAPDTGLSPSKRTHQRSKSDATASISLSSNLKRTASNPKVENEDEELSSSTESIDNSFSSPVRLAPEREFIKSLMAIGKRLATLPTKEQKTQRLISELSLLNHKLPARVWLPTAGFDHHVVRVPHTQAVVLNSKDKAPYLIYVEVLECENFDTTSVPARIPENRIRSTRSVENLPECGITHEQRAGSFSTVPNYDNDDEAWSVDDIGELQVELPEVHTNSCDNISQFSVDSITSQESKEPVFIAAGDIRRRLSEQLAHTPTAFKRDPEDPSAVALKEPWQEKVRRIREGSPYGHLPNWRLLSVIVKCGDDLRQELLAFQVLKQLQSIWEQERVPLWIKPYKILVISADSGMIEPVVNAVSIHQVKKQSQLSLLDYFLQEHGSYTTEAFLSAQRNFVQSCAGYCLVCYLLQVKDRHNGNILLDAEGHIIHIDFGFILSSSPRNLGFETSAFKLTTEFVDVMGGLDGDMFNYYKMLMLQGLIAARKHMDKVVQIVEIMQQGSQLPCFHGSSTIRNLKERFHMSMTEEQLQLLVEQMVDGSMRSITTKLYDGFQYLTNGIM

TTK = biological target: T5, TTK (Homo sapiens, UniProt P33981); conditions: read-out: % control activity remaining
T5 construct: purchased Eurofins DiscoverX KINOMEscan
T5 sequence (P33981 1-857): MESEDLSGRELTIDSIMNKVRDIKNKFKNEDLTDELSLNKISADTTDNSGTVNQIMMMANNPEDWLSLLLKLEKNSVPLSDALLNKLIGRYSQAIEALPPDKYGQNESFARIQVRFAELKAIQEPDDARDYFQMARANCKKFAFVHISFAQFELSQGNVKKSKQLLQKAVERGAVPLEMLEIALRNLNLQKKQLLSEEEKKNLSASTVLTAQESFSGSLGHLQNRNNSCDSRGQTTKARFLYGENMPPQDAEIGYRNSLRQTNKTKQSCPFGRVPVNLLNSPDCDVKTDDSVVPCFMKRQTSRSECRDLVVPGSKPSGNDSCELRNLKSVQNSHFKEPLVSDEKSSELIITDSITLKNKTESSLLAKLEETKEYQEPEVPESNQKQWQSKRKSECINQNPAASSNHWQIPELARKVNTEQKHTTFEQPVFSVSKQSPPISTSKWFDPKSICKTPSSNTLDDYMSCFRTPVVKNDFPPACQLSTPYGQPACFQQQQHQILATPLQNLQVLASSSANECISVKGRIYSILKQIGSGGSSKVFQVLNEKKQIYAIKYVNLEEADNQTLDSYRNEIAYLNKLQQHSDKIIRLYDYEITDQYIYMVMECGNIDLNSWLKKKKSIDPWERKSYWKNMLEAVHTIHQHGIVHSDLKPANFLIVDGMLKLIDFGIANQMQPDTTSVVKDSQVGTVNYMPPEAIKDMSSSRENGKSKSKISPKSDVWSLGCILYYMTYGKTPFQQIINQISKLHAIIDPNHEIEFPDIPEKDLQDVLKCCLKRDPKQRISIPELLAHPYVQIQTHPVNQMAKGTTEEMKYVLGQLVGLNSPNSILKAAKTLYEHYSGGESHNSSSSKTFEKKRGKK

WEE1 = biological target: T6, WEE1 (Homo sapiens, UniProt P30291); conditions: read-out: % control activity remaining
T6 construct: purchased Eurofins DiscoverX KINOMEscan
T6 sequence (P30291 whole entry): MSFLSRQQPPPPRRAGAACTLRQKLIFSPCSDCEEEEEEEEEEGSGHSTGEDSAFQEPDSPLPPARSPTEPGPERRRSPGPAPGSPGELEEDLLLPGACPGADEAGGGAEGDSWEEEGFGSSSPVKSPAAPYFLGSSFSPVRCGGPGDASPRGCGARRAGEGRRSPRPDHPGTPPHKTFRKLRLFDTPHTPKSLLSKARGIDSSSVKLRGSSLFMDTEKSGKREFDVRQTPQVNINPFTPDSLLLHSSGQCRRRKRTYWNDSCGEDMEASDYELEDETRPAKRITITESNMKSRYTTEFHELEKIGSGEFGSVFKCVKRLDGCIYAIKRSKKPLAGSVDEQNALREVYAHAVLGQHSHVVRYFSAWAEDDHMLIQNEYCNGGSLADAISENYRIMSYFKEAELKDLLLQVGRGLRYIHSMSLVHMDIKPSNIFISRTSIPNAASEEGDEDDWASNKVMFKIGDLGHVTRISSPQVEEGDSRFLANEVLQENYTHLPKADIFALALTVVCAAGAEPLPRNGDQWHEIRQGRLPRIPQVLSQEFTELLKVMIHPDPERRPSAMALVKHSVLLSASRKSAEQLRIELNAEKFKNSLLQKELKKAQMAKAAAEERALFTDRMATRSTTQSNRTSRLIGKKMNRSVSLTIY

YSK4 = biological target: T7, YSK4 (Homo sapiens, UniProt Q56UN5); conditions: read-out: % control activity remaining
T7 construct: purchased Eurofins DiscoverX KINOMEscan
T7 sequence (Q56UN5 1-1328): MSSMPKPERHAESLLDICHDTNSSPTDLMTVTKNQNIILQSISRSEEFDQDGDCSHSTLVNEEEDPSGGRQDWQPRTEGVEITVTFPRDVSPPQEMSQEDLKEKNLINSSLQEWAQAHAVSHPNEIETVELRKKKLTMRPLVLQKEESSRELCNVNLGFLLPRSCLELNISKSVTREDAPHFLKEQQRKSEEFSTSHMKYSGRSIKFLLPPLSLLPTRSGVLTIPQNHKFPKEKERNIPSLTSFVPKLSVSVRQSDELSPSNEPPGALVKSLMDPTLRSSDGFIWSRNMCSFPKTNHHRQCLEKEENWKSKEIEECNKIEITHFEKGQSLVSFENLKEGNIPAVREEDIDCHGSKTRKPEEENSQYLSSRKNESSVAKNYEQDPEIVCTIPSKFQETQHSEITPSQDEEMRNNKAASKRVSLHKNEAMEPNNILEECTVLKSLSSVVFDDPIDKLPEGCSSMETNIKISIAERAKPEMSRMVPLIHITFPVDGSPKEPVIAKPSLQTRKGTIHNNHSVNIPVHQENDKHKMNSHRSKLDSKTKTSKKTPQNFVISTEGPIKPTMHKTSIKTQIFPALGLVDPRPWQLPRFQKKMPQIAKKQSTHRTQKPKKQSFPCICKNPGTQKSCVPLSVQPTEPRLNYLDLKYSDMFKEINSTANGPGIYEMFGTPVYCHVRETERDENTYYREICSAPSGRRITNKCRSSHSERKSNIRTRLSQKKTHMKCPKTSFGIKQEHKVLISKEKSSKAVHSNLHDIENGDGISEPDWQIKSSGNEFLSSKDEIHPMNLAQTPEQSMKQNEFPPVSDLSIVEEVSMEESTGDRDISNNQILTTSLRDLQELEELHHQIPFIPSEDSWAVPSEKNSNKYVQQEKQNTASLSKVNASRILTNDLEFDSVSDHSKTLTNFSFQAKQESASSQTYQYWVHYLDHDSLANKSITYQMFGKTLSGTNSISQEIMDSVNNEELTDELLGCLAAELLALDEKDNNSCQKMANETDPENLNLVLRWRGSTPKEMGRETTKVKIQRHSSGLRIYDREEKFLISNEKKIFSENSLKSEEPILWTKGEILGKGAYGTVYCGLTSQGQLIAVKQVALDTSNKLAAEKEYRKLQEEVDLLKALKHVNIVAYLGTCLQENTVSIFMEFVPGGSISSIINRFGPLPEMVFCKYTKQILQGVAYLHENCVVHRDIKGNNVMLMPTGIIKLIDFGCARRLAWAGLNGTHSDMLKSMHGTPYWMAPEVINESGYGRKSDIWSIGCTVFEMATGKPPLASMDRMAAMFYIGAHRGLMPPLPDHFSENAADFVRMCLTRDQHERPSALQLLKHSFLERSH

SMILES	remaining binding at 1 µM [1]	remaining binding at 1 µM (ERBB4)	remaining binding at 1 µM (FGR)	remaining binding at 1 µM (PIK4CB)	inhibition at 1 µM (PIK4CB; read-out: Probe binding inhibited)	remaining binding at 1 µM (TTK)	remaining binding at 1 µM (WEE1)	remaining binding at 1 µM (YSK4)
Clc1cc(NCC2CC2)c2ncc(-c3ccc4[nH]ncc4c3)n2n1 [compound 2, 6-Chloro-N-(cyclopropylmethyl)-3-(1H-indazol-5-yl)imidazo[1,2-b]pyridazin-8-amine]	91%	99%	75%	3.3%	> 90%	77%	100%	45%
O=C(CN1CCOCC1)N[C@H]1CC[C@H](Nc2cc(Cl)nn3c(-c4ccc5[nH]ncc5c4)cnc23)CC1 [compound 26]	57%	100%	93%	21%	–	54%	100%	23%
CN1CCC(CNc2cc(Cl)nn3c(-c4cc5nc(Nc6ccccc6)[nH]c5cc4F)cnc23)CC1 [compound 31, 6-Chloro-3-(6-fluoro-2-(phenylamino)-1H-benzo[d]imidazol-5-yl)-N-((1-methylpiperidin-4-yl)methyl)imidazo[1,2-b]pyridazin-8-amine]	78%	100%	100%	73%	–	90%	100%	77%
